Bounds are passed on as bounds.

We go through 22 compounds from US10329272B2 (priority 2015, dated 2019).

For series [1], the system named is Glomerella lagenarium (Colletotrichum lagenarium). In words: Glomerella Lagenarium (Colletotrichum Lagenarium)/Liquid Culture (Anthracnose). It is filed as cell-based. Particulars: Colletotrichum orbiculare, liquid culture, growth inhibition photometrically 3-4 days after application, compared to untreated control. The protocol: Glomerella Lagenarium (Colletotrichum Lagenarium)/Liquid Culture (Anthracnose)
Conidia of the fungus from cryogenic storage are directly mixed into nutrient broth (PDB potato dextrose broth). After placing a (DMSO) solution of test compound into a microtiter plate (96-well format), the nutrient broth containing the fungal spores is added. The test plates are incubated at 24° C. and the inhibition of growth is measured photometrically 3-4 days after application.

For series [2], the system named is Magnaporthe grisea (Pyricularia oryzae). As to the kind of experiment: microbe, parasite or virus in culture. The series is classed as cell-based. Particulars: read-out: control of Magnaporthe grisea.
The test system of series [3] is Monographella nivalis (Microdochium nivale). As to the kind of experiment: Monographella Nivalis (Microdochium Nivale)/Liquid Culture (Foot Rot Cereals). It is filed as cell-based. Particulars: liquid culture, growth inhibition photometrically 4-5 days after application, compared to untreated control. The protocol:
Monographella Nivalis (Microdochium Nivale)/Liquid Culture (Foot Rot Cereals)
Conidia of the fungus from cryogenic storage are directly mixed into nutrient broth (PDB potato dextrose broth). After placing a (DMSO) solution of test compound into a microtiter plate (96-well format), the nutrient broth containing the fungal spores is added. The test plates are incubated at 24° C. and the inhibition of growth is determined photometrically 4-5 days after application.

The test system of series [4] is Botryotinia fuckeliana (Botrytis cinerea). In words: Botryotinia fuckeliana (Botrytis cinerea)/Liquid Culture (Gray Mould). It is filed as cell-based. Particulars: liquid culture, growth inhibition photometrically 3-4 days after application, compared to untreated control. The protocol:
Biological Examples Botryotinia fuckeliana (Botrytis cinerea)/Liquid Culture (Gray Mould)
Conidia of the fungus from cryogenic storage are directly mixed into nutrient broth (Vogels broth). After placing a (DMSO) solution of test compound into a microtiter plate (96-well format), the nutrient broth containing the fungal spores is added. The test plates are incubated at 24° C. and the inhibition of growth is determined photometrically 3-4 days after application.

In the next series the test system is Sclerotinia sclerotiorum. In words: Sclerotinia sclerotiorum/Liquid Culture (Cottony Rot). The series is classed as cell-based. Particulars: liquid culture, growth inhibition photometrically 3-4 days after application, compared to untreated control. The protocol: Sclerotinia sclerotiorum/Liquid Culture (Cottony Rot)
Mycelia fragments of a newly grown liquid culture of the fungus are directly mixed into nutrient broth (Vogels broth). After placing a (DMSO) solution of test compound into a microtiter plate (96-well format) the nutrient broth containing the fungal material is added. The test plates are incubated at 24° C. and the inhibition of growth is determined photometrically 3-4 days after application.

The subject of another series is Fusarium culmorum. In words: microbe, parasite or virus in culture. The series is classed as cell-based. Particulars: read-out: control of Fusarium culmorum.
The subject of a further series is Gaeumannomyces graminis. As to the kind of experiment: Gaeumannomyces Graminis/Liquid Culture (Take-all of Cereals). The series is classed as cell-based. Particulars: liquid culture, growth inhibition photometrically 4-5 days after application, compared to untreated control. The protocol: Gaeumannomyces Graminis/Liquid Culture (Take-all of Cereals)
Mycelial fragments of the fungus from cryogenic storage were directly mixed into nutrient broth (PDB potato dextrose broth). After placing a (DMSO) solution of test compound into a microtiter plate (96-well format), the nutrient broth containing the fungal spores is added. The test plates are incubated at 24° C. and the inhibition of growth is determined photometrically 4-5 days after application.

A word on the melting point: it is the temperature, or range, at which the solid turns liquid. Turning to `Cn1nc2ccccc2c1C1=NC(C)(C)Cc2ccccc21` [Compound E-2, 3,3-dimethyl-1-(2-methylindazol-3-yl)-4H-isoquinoline], the melting point was 107 to 108 °C. In series [1], this compound returned an inhibition of growth at 20 ppm of at least 80%. Further, the inhibition of growth at 20 ppm in series [2] is at least 80%. Moreover, the inhibition of growth at 20 ppm in series [3] is at least 80%. In series [4], this compound registered an inhibition of growth at 20 ppm of at least 80%. This compound registered an inhibition of growth at 20 ppm with Sclerotinia sclerotiorum of at least 80%.
On to `Cn1nc2ccccc2c1C1=NC(C)(C)C(F)(F)c2ccccc21` [Compound E-13, 4,4-difluoro-3,3-dimethyl-1-(2-methylindazol-3-yl)isoquinoline], for which the inhibition of growth at 20 ppm (in series [1]; in series [2]; in series [3]; in series [4]; in the series on Sclerotinia sclerotiorum) was at least 80% throughout.
With `Cn1nc2ccccc2c1C1=NC(C)(C)C(=O)c2ccccc21`, the melting point lay in the range of 169 to 170 °C.
Compound `Cn1nc2c(Br)cccc2c1C1=NC(C)(C)C(O)c2c(F)cccc21` (stereo not drawn) came in with a melting point of 103 to 105 °C.
On to `Cn1nc2c(Br)cccc2c1C1=NC(C)(C)C(=O)c2ccccc21` [Compound E-6, 1-(7-bromo-2-methyl-indazol-3-yl)-3,3-dimethyl-isoquinolin-4-one], for which the inhibition of growth at 20 ppm in series [2], in series [3] and in series [4] was at least 80% each time.
Compound `Cn1nc2ccccc2c1C1=NC(C)(C)C(Br)c2ccccc21` (stereo not drawn) gave a melting point of 165 to 166 °C.
The compound `Cc1cccc2c(C3=NC(C)(C)C(F)(F)c4ccccc43)n(C)nc12` [Compound E-11, 1-(2,7-dimethylindazol-3-yl)-4,4-difluoro-3,3-dimethyl-isoquinoline] returned a melting point of 136 to 137 °C. The inhibition of growth at 20 ppm in series [1] was at least 80%. In addition, the inhibition of growth at 20 ppm in series [2] is at least 80%. Moreover, the inhibition of growth at 20 ppm in series [3] was at least 80%. This compound also came in with an inhibition of growth at 20 ppm in series [4] of at least 80%. Further, the inhibition of growth at 20 ppm in the series on Sclerotinia sclerotiorum was at least 80%. For the same compound, in the series with Fusarium culmorum, the inhibition of growth at 20 ppm is at least 80%.
Consider `Cn1nc2c(Br)cccc2c1C1=NC(C)(C)Cc2c(F)cccc21` [Compound E-15, 1-(7-bromo-2-methyl-indazol-3-yl)-5-fluoro-3,3-dimethyl-4H-isoquinoline], for which the melting point lay in the range of 168 to 169 °C. In series [2], the inhibition of growth at 20 ppm was at least 80%. Moreover, the inhibition of growth at 20 ppm in series [3] is at least 80%. In series [4], this compound came in with an inhibition of growth at 20 ppm of at least 80%.
Compound `Cn1nc2c(Br)cccc2c1C1=NC(C)(C)C(O)c2ccccc21` (stereo not drawn) registered a melting point of 215 to 217 °C.
With `Cn1nc2c(Cl)c(Cl)ccc2c1C1=NC(C)(C)Cc2ccccc21` [Compound E-24, 1-(6,7-dichloro-2-methyl-indazol-3-yl)-3,3-dimethyl-4H-isoquinoline], the melting point lay within 197 to 199 °C. The compound further registered an inhibition of growth at 20 ppm in series [4] of at least 80%.
`Cn1nc2c(Br)cccc2c1C1=NC(C)(C)C(F)(F)c2c(F)cccc21` [Compound E-19, 1-(7-bromo-2-methyl-indazol-3-yl)-4,4,5-trifluoro-3,3-dimethyl-isoquinoline] had a melting point of 198 to 199 °C. This compound came in with an inhibition of growth at 20 ppm in series [1] of at least 80%. Moreover, in series [2], the inhibition of growth at 20 ppm was at least 80%. In addition, the inhibition of growth at 20 ppm in series [3] is at least 80%. In series [4], this compound came in with an inhibition of growth at 20 ppm of at least 80%.
Turning to `CC1(C)N=C(c2onc3c(Cl)cccc23)c2ccccc2C1(F)F` [Compound E-31, 7-chloro-3-(4,4-difluoro-3,3-dimethyl-1-isoquinolyl)-2,1-benzoxazole], the inhibition of growth at 20 ppm (with Gaeumannomyces graminis; in series [1]; in series [2]; in series [4]; with Sclerotinia sclerotiorum) was at least 80% each time.
The compound `Cc1ccc2c(C3=NC(C)(C)C(=O)c4ccccc43)n(C)nc2c1C` [Compound E-29, 3,3-dimethyl-1-(2,6,7-trimethylindazol-3-yl)isoquinolin-4-one] came in with a melting point of 174 to 177 °C. In series [1], this compound came in with an inhibition of growth at 20 ppm of at least 80%. Further, the inhibition of growth at 20 ppm in series [2] is at least 80%. In series [3], the inhibition of growth at 20 ppm is at least 80%. In series [4], this compound registered an inhibition of growth at 20 ppm of at least 80%. The inhibition of growth at 20 ppm in the series on Sclerotinia sclerotiorum was at least 80%. Further, the inhibition of growth at 20 ppm in the series with Fusarium culmorum is at least 80%.
On to `Cn1nc2cc(F)ccc2c1C1=NC(C)(C)C(C)(C)c2c(F)cccc21` [Compound E-21, 5-fluoro-1-(6-fluoro-2-methyl-indazol-3-yl)-3,3,4,4-tetramethyl-isoquinoline], for which the melting point fell in the range of 131 to 133 °C. Also, the inhibition of growth at 20 ppm in series [1] is at least 80%. Also, in series [2], the inhibition of growth at 20 ppm is at least 80%. In series [3], the inhibition of growth at 20 ppm was at least 80%. In addition, in series [4], the inhibition of growth at 20 ppm was at least 80%. In addition, the inhibition of growth at 20 ppm in the series on Fusarium culmorum was at least 80%.
`Cn1nc2c(Br)cccc2c1C1=NC(C)(C)C(Br)c2ccccc21` (stereo not drawn) [Compound E-7, 4-bromo-1-(7-bromo-2-methyl-indazol-3-yl)-3,3-dimethyl-4H-isoquinoline] came in with an inhibition of growth at 20 ppm in series [4] of at least 80%.
In turn, `Cc1c(Cl)ccc2c(C3=NC(C)(C)C(C)(C)c4c(F)cccc43)n(C)nc12` [Compound E-26, 1-(6-chloro-2,7-dimethyl-indazol-3-yl)-5-fluoro-3,3,4,4-tetramethyl-isoquinoline] gave a melting point of 136 to 142 °C. Besides, the inhibition of growth at 20 ppm in series [1] was at least 80%. The inhibition of growth at 20 ppm in series [2] is at least 80%. The compound also returned an inhibition of growth at 20 ppm in series [3] of at least 80%. In series [4], the inhibition of growth at 20 ppm is at least 80%. For the same compound, the inhibition of growth at 20 ppm in the series with Sclerotinia sclerotiorum is at least 80%.
On to `Cn1nc2c(Br)cccc2c1C1=NC(C)(C)C(=O)c2c(F)cccc21` [Compound E-18, 1-(7-bromo-2-methyl-indazol-3-yl)-5-fluoro-3,3-dimethyl-isoquinolin-4-one], for which the melting point fell in the range of 260 to 261 °C. For the same compound, the inhibition of growth at 20 ppm in series [3] is at least 80%.
For the compound `Cc1ccc2c(C3=NC(C)(C)C(F)(F)c4ccccc43)n(C)nc2c1C` [Compound E-25, 4,4-difluoro-3,3-dimethyl-1-(2,6,7-trimethylindazol-3-yl)isoquinoline], the melting point lay within 154 to 157 °C. The compound further yielded an inhibition of growth at 20 ppm in series [1] of at least 80%. Also, in series [2], the inhibition of growth at 20 ppm is at least 80%. The compound also gave an inhibition of growth at 20 ppm in series [3] of at least 80%. In series [4], this compound yielded an inhibition of growth at 20 ppm of at least 80%. In the series on Sclerotinia sclerotiorum, this compound gave an inhibition of growth at 20 ppm of at least 80%. In addition, in the series on Fusarium culmorum, the inhibition of growth at 20 ppm is at least 80%.
`Cc1cccc2c(C3=NC(C)(C)C(F)(F)c4c(F)cccc43)n(C)nc12` [Compound E-20, 1-(2,7-dimethylindazol-3-yl)-4,4,5-trifluoro-3,3-dimethyl-isoquinoline]: the melting point was 164 to 165 °C. This compound also showed an inhibition of growth at 20 ppm in the series on Gaeumannomyces graminis of at least 80%. The same compound returned an inhibition of growth at 20 ppm in series [1] of at least 80%. Also, the inhibition of growth at 20 ppm in series [2] is at least 80%. The same compound displayed an inhibition of growth at 20 ppm in series [3] of at least 80%. This compound also displayed an inhibition of growth at 20 ppm in series [4] of at least 80%.
In the case of `Cc1cccc2c(C3=NC(C)(C)C(C)(C)c4c(F)cccc43)snc12` [Compound E-32, 3-(5-fluoro-3,3,4,4-tetramethyl-1-isoquinolyl)-7-methyl-2,1-benzothiazole], the melting point lay in the range of 96 to 98 °C. This compound registered an inhibition of growth at 20 ppm with Gaeumannomyces graminis of at least 80%. In series [1], the inhibition of growth at 20 ppm was at least 80%. In series [2], the inhibition of growth at 20 ppm was at least 80%. Further, the inhibition of growth at 20 ppm in series [3] was at least 80%. For the same compound, the inhibition of growth at 20 ppm in series [4] is at least 80%. The compound also came in with an inhibition of growth at 20 ppm in the series on Sclerotinia sclerotiorum of at least 80%. The inhibition of growth at 20 ppm with Fusarium culmorum was at least 80%.
Take `Cn1nc2c(Br)cccc2c1C1=NC(C)(C)C(F)(F)c2ccccc21` [Compound E-10, 1-(7-bromo-2-methyl-indazol-3-yl)-4,4-difluoro-3,3-dimethyl-isoquinoline]: the melting point fell in the range of 157 to 158 °C. The same compound registered an inhibition of growth at 20 ppm with Gaeumannomyces graminis of at least 80%. Besides, in series [1], the inhibition of growth at 20 ppm was at least 80%. In addition, in series [2], the inhibition of growth at 20 ppm is at least 80%. Moreover, the inhibition of growth at 20 ppm in series [3] is at least 80%. In series [4], the inhibition of growth at 20 ppm was at least 80%. The compound also registered an inhibition of growth at 20 ppm in the series with Sclerotinia sclerotiorum of at least 80%.
Compound `CC1(C)N=C(c2n[nH]c3ccccc23)c2cccc(F)c2C1(C)C` [Compound E-14, 5-fluoro-1-(1H-indazol-3-yl)-3,3,4,4-tetramethyl-isoquinoline] displayed a melting point of 174 to 177 °C. Also, the inhibition of growth at 20 ppm in series [4] is at least 80%.
